“Also recorded” adds a separate entry of the source. Like-named read-outs stand apart in the source and are kept apart here.
Tests used:
[1] = tested on: A-549 xenografts; assay: CD31 IHC microvessel count in A-549 xenograft tumors; format: in vivo, nude mice; conditions: 5 mg/Kg, tumors processed two hours after last i.p. injection
Procedure: FIGS. 7A-7B illustrates CD31 IHC staining as described under Materials and Methods for tumors processed two hours after the last i.p. injection for a control (FIG. 7A) and GFB204 (FIG. 7B). Quantification of microvessels density (400×) was determined as described under Materials and Methods. SE, standard error. FIGS. 7A and 7B Microvessel Count; FIG. 7A=11.3±1.9; FIG. 7B=2.6±0.9.
IHC study. On the termination day of antitumor experiments, the tumors were extracted and fixed in 10% neutral buffered formalin for 6 hours. After fixation, the tissue samples were processed into paraffin blocks. Tissue sections (4 μm thick) were obtained from the parablocks and stained with hematoxylin and eosin (H&E) using standard histological techniques. Tissue sections were also subjected to immunostaining for CD31 (BD Biosciences, San Diego, Calif.) using the avidin biotin peroxidase complex technique (Blaskovich, M. A. et al. Nat Biotechnol, 2000, 18:1065-70). Mouse monoclonal antibody was used at 1:50 dilution, following microwave antigen retrieval (four cycles of 5 minutes each on high in 0.1M citrate buffer).

[2] = tested on: A-549 xenografts; assay: Antitumor activity in the nude mouse A-549 tumor xenograft model; format: in vivo, nude mice; conditions: for average tumor size: 3 weeks
Procedure: FIG. 6 illustrates that GFB204 inhibits A-549 xenografts growth in nude mice (FIG. 6). A-549 cells were implanted into the flanks of nude mice and when the tumors reached an average size of about 100 mm^3, the mice were randomized and treated either with vehicle (♦) or GFB204 at 1 mg/kg (▪) and 5 mg/kg (●), and tumor sizes measured as described under Materials and Methods. Tumors were processed two hours after the last i.p. injection for CD31 IHC staining as described under Materials and Methods.
Antitumor activity in the nude mouse tumor xenograft model. Nude mice (Charles River, Wilmington, Mass.) were maintained in accordance with the Institutional Animal Care and Use Committee (IACUC) procedures and guidelines. A-549 cells were harvested and resuspended in PBS, then injected s.c. into the right and left flanks (10×10^6 cells per flank) of 8 week old female nude mice as reported previously (Sun, J. et al. Cancer Res, 1999, 59:4919-26). When tumors reached about 100 mm^3, animals were dosed i.p. with 0.2 ml solution once daily. Control animals received a vehicle whereas treated animals were injected with GFB204 (1 or 5 mg/kg/day). The tumor volumes were determined by measuring the length (l) and the width (w) and calculating the volume (V=lw^2/2) as described previously (Sun, J. et al. Cancer Res, 1999, 59:4919-26). Statistical significance between control and treated animals were evaluated using Student's t-test.

[3] = tested on: bFGF-stimulated Erk1, Erk2, Akt and STAT3 phosphorylation; assay: bFGF-stimulated phosphorylation of Erk1/2, Akt and STAT3 in NIH 3T3 cells; format: cell-based, mouse; conditions: GFB204 10 μM
Procedure: (§1) FIGS. 3A and 3B show the effect of GFB204 on growth factor stimulated Erk1, Erk2, Akt, and STAT3 phosphorylation. GFB204 inhibits VEGF and PDGF stimulation of Flk-1 tyrosine phosphorylation and Erk1/Erk2 phosphorylation (FIG. 3A). NIH 3T3 cells or Flk-1/NIH 3T3 cells were treated with increasing concentrations of GFB204 for 5 minutes prior to stimulation with PDGFBB (10 ng/ml) or VEGF (50 ng/ml), respectively, for 10 minutes. The cells were then lysed and processed for SDS-PAGE Western blotting with an antibody specific for phosphotyrosine-Flk-1 or anti-phosphotyrosine for PDGFR tyrosine phosphorylation or phospho-Erk1/2. GFB204 effects on growth factor-stimulated Erk1, Erk2, Akt and STAT3 phosphorylation (FIG. 3B). NIH 3T3, Flk-1/NIH 3T3, IGF-1R/NIH 3T3 or EGFR/NIH 3T3 cells were treated with GFB204 (10 μM) prior to stimulation with PDGF (NIH 3T3) VEGF (Flk-1/NIH 3T3), EGF (EGFR/NIH 3T3), bFGF (NIH 3T3) or IGF-1 (IGF-1R/NIH 3T3). The cells were then harvested and processed for SDS-PAGE Western blotting with antibodies specific for phospho-Erk1/2, phospho-Akt and phospho-STAT3.
(§2) Growth factor-mediated stimulation of phosphorylation of Erk1/2, Akt and STAT3. […]

[4] = tested on: VEGF-stimulated Erk1, Erk2, Akt and STAT3 phosphorylation; assay: VEGF-stimulated phosphorylation of Erk1/2, Akt and STAT3 in Flk-1/NIH 3T3 cells; format: cell-based, mouse; conditions: GFB204 10 μM
Procedure: as §1, §2

[5] = tested on: PDGF-stimulated Erk1, Erk2, Akt and STAT3 phosphorylation; assay: PDGF-stimulated phosphorylation of Erk1/2, Akt and STAT3 in NIH 3T3 cells; format: cell-based, mouse; conditions: GFB204 10 μM
Procedure: as §1, §2

[6] = tested on: VEGFR (Flk-1/KDR); assay: VEGF-stimulated Flk-1 tyrosine phosphorylation in Flk-1/NIH 3T3 cells; format: cell-based, human
Procedure: Inhibition of growth factor-dependent receptor tyrosine phosphorylation by GFBs. Starved Flk-1/KDR-overexpressing NIH 3T3 cells (Flk-1/NIH 3T3) or NIH 3T3 cells were pretreated with GFBs for 5 min before stimulation with VEGF (50 ng/ml) or PDGF-BB (10 ng/ml) for 10 min, respectively. The cells were then harvested and lysed, and proteins from the lysates were separated by SDS-PAGE and transferred to nitrocellulose. Membranes then were either immunoblotted with anti-phospho-VEGFR2 antibody (Cell Signaling Technologies, Beverly, Mass.) for activated Flk-1 or anti-phospho-tyrosine antibody (4G10, Upstate Biotechnology, Lake Placid, N.Y.) for activated PDGFR. Phosphotyrosine Flk-1 and PDGFR were quantified using a Bio-Rad Model GS-700 Imaging Densitometer (Bio-Rad Laboratories, Inc, Hercules, Calif.) (Blaskovich, M. A. et al. Nat Biotechnol, 2000, 18:1065-70).

CCCCOc1c2cc(C(=O)Nc3cc(C(=O)O)cc(C(=O)OCc4ccccc4)c3)cc1Cc1cc(C(=O)Nc3cc(C(=O)O)cc(C(=O)OCc4ccccc4)c3)cc(c1OCCCC)Cc1cc(C(=O)Nc3cc(C(=O)O)cc(C(=O)OCc4ccccc4)c3)cc(c1OCCCC)Cc1cc(C(=O)Nc3cc(C(=O)O)cc(C(=O)OCc4ccccc4)c3)cc(c1OCCCC)C2 [GFB204]
microvessels per field (400×), CD31 staining [1]: 2.6±0.9
average tumor size ([2]; 1 mg/kg i.p. once daily): 650±114 mm^3
tumor growth inhibition ([2]; 1 mg/kg, not statistically significant): 15%
average tumor size ([2]; 5 mg/kg i.p. once daily): 284±108 mm^3
tumor growth inhibition ([2]; 5 mg/kg, statistically significant (p<0.05)): 73%
bFGF-stimulation of the phosphorylation of Erk1, Erk2, Akt and STAT3 [3]: had little effect and not
VEGF-stimulation of the phosphorylation of Erk1, Erk2, Akt and STAT3 [4]: blocked; also recorded: inhibited
PDGF-stimulation of the phosphorylation of Erk1, Erk2, Akt and STAT3 [5]: blocked; also recorded: inhibited
IC50 ([6]; VEGF 50 ng/ml stimulated Flk-1 tyrosine phosphorylation, read-out: IC50 (μM) VEGFR): 0.48 ± 0.31 µM
IC50 ([6]; read-out: IC50 VEGFR tyrosine phosphorylation (VEGF)): 0.48 µM

Reference: patent US7718700B2, “Growth factor-binding compounds and methods of use” (Yale University, priority 2004, dated 2010)
